What was measured:
[1] = value used as input for the model calculation, cited from earlier work; for diffusion coefficient, peritubular: peritubular dentine; for diffusion coefficient, tubular: tubular dentine
[2] = In vivo whitening of teeth through laser microperforations
[3] = in 14 hours; 33% hydrogen peroxide on micro-perforations
Procedure: One freshly extracted lower human incisor was used in the experiment. Immediately after extraction, the tooth was stored in a 0.1% w/w thymol solution at a temperature of +4-6° C. for 3 weeks.

| pulp vitality (follow-up histopathology) ([2]; treated teeth, after extraction) | Structure (SMILES) | diffusion coefficient in intertubular dentine [1] | diffusion coefficient, peritubular [1] | diffusion coefficient, tubular [1] | whitening effect (VITA scale) ([2]; Patient 1, 5 days after the procedure, peroxide 105 min at 37° C., 4 laser holes) | whitening effect (VITA scale) ([2]; Patient 1, 7 days after the procedure, peroxide 105 min at 37° C., 4 laser holes) | whitening effect (VITA scale) ([2]; Patients 2 and 3, 1 day after the procedure, peroxide 70 min / 45 min at 37° C.) | adverse effects on the oral mucosa ([2]; three patients) | brown discoloration of the root surface [3] |
| --- | --- | --- | --- | --- | --- | --- | --- | --- | --- |
| – | O [water] | 1.74×10^−6 cm^2/sec | 1.74×10^−7 cm^2/sec | 1.74×10^−5 cm^2/sec | – | – | – | – | – |
| confirmed the vitality of the pulp | OO [hydrogen peroxide] | 3.6×10^−7 cm^2/sec | 3.6×10^−8 cm^2/sec | 3.6×10^−6 cm^2/sec | one shade | one more shade | two shades (A3 to A1) | didn't observe any adverse effects | completely bleached |

From US20100015576A1, “METHOD AND APPARATUS FOR DIAGNOSTIC AND TREATMENT USING HARD TISSUE OR MATERIAL MICROPERFORATION” (RejuveDent LLC, priority 2007, published 2010)
